Experimental data as given in US20120077744A1, “STEROID-SPARING METHODS OF TREATING BRAIN EDEMA” (Neutron Limited, priority 2007, published 2012).

What was measured:
[1] = system: patients with primary or secondary brain tumors (peritumoral brain edema); conditions: interim report (SNO 2006); 20 subjects on corticorelin acetate for at least 4 weeks; cited from earlier work
[2] = system: patients with primary or secondary brain tumors (peritumoral brain edema); conditions: interim report (SNO 2006); 8 of 18 subjects with such conditions at baseline; cited from earlier work
[3] = system: patients with primary or secondary brain tumors (peritumoral brain edema); assay: Open-label extension study: improvement of steroid-related conditions; type: in vivo, human
Protocol: In these 8 patients, the mean NCD was −9.8 mg/d; the median NCD was −6.5 mg/d (0 to −36 mg/d).
Mean baseline dexamethasone dose was similar in patients with reduced NCD (6.2 mg) and those with increased NCD (6.3 mg). Improvement or resolution of baseline steroid-related conditions correlated with NCD. Such improvement was observed only in patients whose NCD was reduced or those who took no dexamethasone from baseline to date extraction, as shown in FIG. 3. FIG. 3 is flow chart depicting the net cumulative change in dexamethasone dose and steroid-related adverse events. In contrast, worsening or new onset of steroid-related AEs was confined to patients whose NCD was increased, with one exception—a patient who initiated dexamethasone ≦2 weeks prior to baseline. Improvement was most frequently observed in Cushingoid appearance (5 AEs) myopathy (4 AEs), and insomnia (2 AEs) followed by weight gain, bloating, pedal edema, polyuria, skin striae, and Herpes zoster rash (1 AE each). Median time to initial improvement of steroid-related conditions was 12 weeks (1 to 36 weeks).

[4] = system: patients with peritumoral brain edema; conditions: cited from earlier work
RG2 glioma tumor cells = conditions: rats, cited from earlier work
[5] = system: patients with primary or secondary brain tumors (peritumoral brain edema); assay: Open-label extension study: adverse events and safety
Protocol: Eligible patients with primary or secondary brain tumors, who had previously participated in one of two randomized, double-blind Phase III trials, were then enrolled in an open-label extension study. As shown in FIG. 1 patients that participated in the Phase III studies that received XERECEPT (corticorelin acetate) 1 mg twice daily and dexamethasone or placebo and dexamethasone or dexamethasone alone were enrolled in the open label extension study. One of the goals of the open label study was to study the maximum dexamethasone reduction in each patient.
In the open-labeled extension study, patients returned at 4-week intervals and completed assessments that included adverse events, dexamethasone dose, and steroid side-effects. […] Net cumulative change in dexamethasone dose (NCD) for each patient was determined by the change in dexamethasone dose from baseline for each visit. The net sum of these changes accounted for duration, direction, and amount of dexamethasone dose change.

[6] = system: vascular leakage of plasma constituents; conditions: systemic administration; response to injury or inflammatory mediators; cited from earlier work
[7] = system: patients with primary or secondary brain tumors (peritumoral brain edema); assay: Open-label extension study: dexamethasone dose reduction (net cumulative change in dexamethasone dose, NCD); type: in vivo, human
Description: Eligible patients with primary or secondary brain tumors, who had previously participated in one of two randomized, double-blind Phase III trials, were then enrolled in an open-label extension study. […] One of the goals of the open label study was to study the maximum dexamethasone reduction in each patient.

[8] = system: intracerebral W256 mammary carcinomas; conditions: rats, even at the study's lowest dose of corticorelin acetate; cited from earlier work
[9] = Open-label extension study: serial serum cortisol levels; type: in vivo, human; conditions: for AM serum cortisol, one patient: reference range 5-25 μg/dL
Protocol: Serial serum cortisol levels were obtained for 16 patients, and were normal or low in 15 (94%) of the 16 patients. In one patient, AM serum cortisol (reference range 5-25 μg/dL) was low on a dexamethasone dose of 2.5 mg/d, moderately elevated (39 μg/dL) after discontinuation of dexamethasone for 4 weeks, then normalized (25 μg/dL) after 16 weeks off dexamethasone, and again low (0.4 μg/dL) after 8 weeks on dexamethasone at 7.0-8.0 mg/d.

## CC[C@H](C)[C@H](NC(=O)[C@@H](NC(=O)[C@H](CCC(=O)O)NC(=O)[C@H](CCSC)NC(=O)[C@H](CC(C)C)NC(=O)[C@H](CCCCN)NC(=O)[C@H](CCCNC(=N)N)NC(=O)[C@H](CC(N)=O)NC(=O)[C@H](CO)NC(=O)[C@H](Cc1c[nH]cn1)NC(=O)[C@H](C)NC(=O)[C@H](CCC(N)=O)NC(=O)[C@H](CCC(N)=O)NC(=O)[C@H](C)NC(=O)[C@H](CC(C)C)NC(=O)[C@H](CCC(N)=O)NC(=O)[C@H](CCC(=O)O)NC(=O)[C@H](C)NC(=O)[C@H](CCCNC(=N)N)NC(=O)[C@H](C)NC(=O)[C@H](CCSC)NC(=O)[C@H](CCC(=O)O)NC(=O)[C@H](CC(C)C)NC(=O)[C@@H](NC(=O)[C@H](CCC(=O)O)NC(=O)[C@H](CCCNC(=N)N)NC(=O)[C@H](CC(C)C)NC(=O)[C@H](CC(C)C)NC(=O)[C@H](Cc1c[nH]cn1)NC(=O)[C@H](Cc1ccccc1)NC(=O)[C@@H](NC(=O)[C@H](CC(C)C)NC(=O)[C@H](CC(=O)O)NC(=O)[C@H](CC(C)C)NC(=O)[C@H](CO)NC(=O)[C@@H](NC(=O)[C@@H]1CCCN1C(=O)[C@@H]1CCCN1C(=O)[C@H](CCC(=O)O)NC(=O)[C@H](CCC(=O)O)NC(=O)[C@@H](N)CO)[C@@H](C)CC)[C@@H](C)O)C(C)C)[C@@H](C)CC)C(N)=O [corticorelin acetate]
[1]
  Subjects who reduced their dexamethasone dosage during the study: 11 subjects
  Subjects who took no concomitant dexamethasone: 2 subjects
[2]
  Subjects with improvement or resolution of steroid related conditions: 45%
[3]; 8 of the 18 patients with such conditions at baseline, 17 conditions
  Patients with improvement or resolution of steroid-related conditions: 45%
[3]; 8 patients with improvement or resolution of steroid-related conditions
  Mean NCD: -9.8 mg/day
[3]; 8 patients with improvement or resolution of steroid-related conditions, range 0 to −36 mg/d
  Median NCD: -6.5 mg/day
[3]; range 1 to 36 weeks
  Median time to initial improvement of steroid-related conditions: 12 weeks
[3]; steroid-related conditions
  Improvement observed in Cushingoid appearance: 5 AEs
  Improvement observed in insomnia: 2 AEs
  Improvement observed in myopathy: 4 AEs
  Improvement observed in weight gain, bloating, pedal edema, polyuria, skin striae, and Herpes zoster rash: 1 AE each
[4]; human, in vivo, iv
  Side-effects of intravenous administration: some side-effects including headache, hypotension, facial flushing, diarrhea, shortness of breath, nausea and lethargy
  Tolerability in humans: well-tolerated
[4]; intravenous bolus and continuous infusions
  Neurological symptoms or physical findings: showed improvement in neurological symptoms or physical findings
RG2 glioma tumor cells; administered chronically
  Survival versus dexamethasone alone: significantly prolonged survival
RG2 glioma tumor cells; intravenous infusion
  Effect on tumoral and peritumoral edema: reduce tumoral and peritumoral edema
[5]; four patients died between 1-40 days after the last dose
  Deaths: relation to study drug: all because of conditions not related to study drug
[5]; in vivo
  All adverse events, Mild: 3 (15.0) n (%)
  All adverse events, Moderate: 3 (15.0) n (%)
  All adverse events, Severe: 1 (5.0) n (%)
  All adverse events, all severities (last column, no head): 7 (35.0) n (%)
  Eyelid edema, Mild: 1 (5.0) n (%)
  Eyelid edema, all severities (last column, no head): 1 (5.0) n (%)
  Flushing, Mild: 3 (15.0) n (%)
  Flushing, Moderate: 2 (10.0) n (%)
  Flushing, all severities (last column, no head): 5 (25.0) n (%)
  Headache, Severe: 1 (5.0) n (%)
  Headache, all severities (last column, no head): 1 (5.0) n (%)
  Injection site erythema, Mild: 4 (20.0) n (%)
  Injection site erythema, Moderate: 1 (5.0) n (%)
  Injection site erythema, all severities (last column, no head): 5 (25.0) n (%)
  Injection site reaction, Mild: 2 (10.0) n (%)
  Injection site reaction, Moderate: 1 (5.0) n (%)
  Injection site reaction, all severities (last column, no head): 3 (15.0) n (%)
  Nausea, Moderate: 1 (5.0) n (%)
  Nausea, all severities (last column, no head): 1 (5.0) n (%)
  Number of SAEs: 12 SAEs
  Photophobia, Moderate: 1 (5.0) n (%)
  Photophobia, all severities (last column, no head): 1 (5.0) n (%)
  SAEs attributed to corticorelin acetate: none of which were attributed to corticorelin acetate
  Safety and tolerability of long-term treatment: safe and well-tolerated
[6]
  Effect on vascular leakage and tissue swelling: inhibit vascular leakage of plasma constituents and associated tissue swelling
[7]; 5 of the 8 patients 55 years of age
  Typically refractory patients who successfully reduced dexamethasone: 62.5%
[7]; 7 of the 10 patients with recurrent brain tumor
  Typically refractory patients who successfully reduced dexamethasone: 70%
[7]; 7 of the 20 patients
  Patients with increased NCD: 35%
[7]; 7 patients whose NCD was increased
  Mean NCD: +10.7 mg/d
[7]; 7 patients whose NCD was increased, range +2.0 mg/d to +46.0 mg/d
  Median NCD: +5.0 mg/d
[7]; 7 patients with increased NCD, range +50 to +200%
  Median maximum percent change from baseline in dexamethasone dose: +100%
[7]; 11 of the 16 patients in whom prior dexamethasone reductions had been unsuccessful
  Typically refractory patients who successfully reduced dexamethasone: 69%
[7]; 11 of the 20 patients
  Patients with reduced NCD: 55%
[7]; 11 patients whose NCD was reduced
  Mean NCD: -10.7 mg/day
[7]; 11 patients whose NCD was reduced, range −0.5 to −36 mg/d
  Median NCD: -3.0 mg/day
[7]; 11 patients with reduced NCD, range −11 to −100%
  Median maximum percent change from baseline in dexamethasone dose: −87%
[7]; of the 11 patients with reduced NCD
  Patients discontinuing dexamethasone altogether: 5 patients
[7]; patients with peritumoral brain edema
  Exposure to dexamethasone and steroid-related side-effects: associated with reduced exposure to dexamethasone and improvement in steroid-related side-effects
[7]; two of 20 patients
  Patients who took 0.0 mg/d dexamethasone from baseline to ≧24 weeks: 10%
[8]
  Effect on the anti-edematous effect of dexamethasone: enhance substantially the anti-edematous effect of dexamethasone
[9]; 15 of the 16 patients
  Patients with normal or low serial serum cortisol levels: 94%
[9]; after 8 weeks on dexamethasone at 7.0-8.0 mg/d, low
  AM serum cortisol, one patient: 0.4 µg/dL
[9]; after 16 weeks off dexamethasone, normalized
  AM serum cortisol, one patient: 25 µg/dL
[9]; after discontinuation of dexamethasone for 4 weeks, moderately elevated
  AM serum cortisol, one patient: 39 µg/dL
[9]; dosing up to 48 weeks
  Induction of hypercortisolism: did not induce hypercortisolism
